Test results from patent US8975228B2, “Use of boswellic acids for the prophylaxis and/or treatment of damage to and/or inflammation of the islets of Langerhans” (Fraunhofer-Gesellschaft zur Forderung der Angewandten …, priority 2010, dated 2015).

Key:
TNF-α [1] = conditions: in vitro, technical literature; cited from earlier work
[2] = Blood glucose level in MLD-STZ diabetic mice; format: in vivo, mouse; conditions: for STZ-induced increase of the blood glucose level: single substance i.p. daily 10 days, AKBA 15 mg/kg, KBA 7.5 mg/kg
From the text: (§1) The use of “multiple low dose streptozotocin” (MOL-STZ diabetes) is an acknowledged animal model for inducing diabetes that occurs frequently in association with insulitis, which corresponds to IDDM in humans. In the pathogenesis, macrophages and T-lymphocytes infiltrate the islets of Langerhans and the B-cells are destroyed. MLD-STZ induced diabetes is very well suited for investigating the anti-diabetic and/or anti-inflammatory effect of drugs on the pancreatic islets. For inducing MLD-STZ diabetes, a mouse is dosed with 40 mg/kg STZ per day intraperitoneally (i.p.) over 5 days. During this time there is no B-cell destruction. Only after 10 to 15 days after the first injection of STZ do signs of inflammation of the islets of Langerhans appear, when T-lymphocytes infiltrate and the B-cells are being destroyed. After about 16 days, the symptoms of the inflammation have disappeared again. Most B-cells have died. As a consequence, insulin secretion is reduced or no longer existent (cf. McEvoy et al. 1984, “Multiple low-dose streptozotocin-induced diabetes in the mouse”, Evidence for stimulation of a cytotoxic cellular immune response against an insulin-producing beta cell line, J Clin Invest, 74:715-22). This animal model of experimental induction of diabetes mellitus essentially corresponds with the pathogenesis of type 1 diabetes in young humans.
For inducing MLD-STZ diabetes, the animals were injected i.p. 40 mg/kg STZ a day for a period of five days. In group A the animals were additionally treated with 150 mg/kg BE i.p. for 5 days (FIG. 5A), in group B for 10 days (FIG. 5B) and in group C for 21 days (FIG. 5C).
The animals were treated for 5 days with STZ as described above. AKBA in solution in Tween 80 was injected i.p. daily for 10 days.

IFN-γ [3] = conditions: in vitro, technical literature; cited from earlier work
Elastase = molecular target: T1, Elastase (Homo sapiens, UniProt P08246); conditions: in vitro, technical literature; cited from earlier work
T1 sequence (P08246 30-267): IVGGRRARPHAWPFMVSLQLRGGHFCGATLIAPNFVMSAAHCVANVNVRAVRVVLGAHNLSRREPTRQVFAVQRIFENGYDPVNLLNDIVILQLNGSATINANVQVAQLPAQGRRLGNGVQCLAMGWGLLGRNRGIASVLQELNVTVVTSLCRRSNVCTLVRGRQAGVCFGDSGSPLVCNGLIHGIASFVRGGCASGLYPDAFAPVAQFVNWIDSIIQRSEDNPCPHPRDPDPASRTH

NFK B = conditions: in vitro, technical literature; cited from earlier work
C3-Convertase = conditions: in vitro, technical literature; cited from earlier work
islets of Langerhans = experiment: Histology of pancreas in MLD-STZ diabetic mice (H&E, anti-CD3, anti-activated caspase 3); format: in vivo, mouse; conditions: STZ 40 mg/kg i.p. 5 days; 10 days i.p. BE 150 mg/kg, AKBA 15 mg/kg or KBA 7.5 mg/kg; examined day 10
From the text: as §1
In order to investigate the effect of an extract containing boswellic acids on the damage and/or inflammation of the islets of Langerhans, a group of mice was dosed with streptozotocin alone and another group of mice was dosed with streptozotocin plus boswellic acid extract (a mixture of boswellic acids with an overall concentration of all boswellic acids of 62%) The aforesaid extract contained 5.51% KBA and 4.96% AKBA. From the 1st to the 10th day, C3M/HeN and Bk +/+ were administered i.p with a dose of 150 mg/kg body weight in male mice of strains bred in the laboratory. […]

IL-1β = conditions: in vitro, technical literature; cited from earlier work
IL-2 [4] = conditions: in vitro, technical literature; cited from earlier work
[5] = molecular target: T2, 5-Lipoxygenase (leukotriene) (Homo sapiens, UniProt P09917); conditions: in vitro, technical literature; cited from earlier work
T2 sequence (P09917 1-674): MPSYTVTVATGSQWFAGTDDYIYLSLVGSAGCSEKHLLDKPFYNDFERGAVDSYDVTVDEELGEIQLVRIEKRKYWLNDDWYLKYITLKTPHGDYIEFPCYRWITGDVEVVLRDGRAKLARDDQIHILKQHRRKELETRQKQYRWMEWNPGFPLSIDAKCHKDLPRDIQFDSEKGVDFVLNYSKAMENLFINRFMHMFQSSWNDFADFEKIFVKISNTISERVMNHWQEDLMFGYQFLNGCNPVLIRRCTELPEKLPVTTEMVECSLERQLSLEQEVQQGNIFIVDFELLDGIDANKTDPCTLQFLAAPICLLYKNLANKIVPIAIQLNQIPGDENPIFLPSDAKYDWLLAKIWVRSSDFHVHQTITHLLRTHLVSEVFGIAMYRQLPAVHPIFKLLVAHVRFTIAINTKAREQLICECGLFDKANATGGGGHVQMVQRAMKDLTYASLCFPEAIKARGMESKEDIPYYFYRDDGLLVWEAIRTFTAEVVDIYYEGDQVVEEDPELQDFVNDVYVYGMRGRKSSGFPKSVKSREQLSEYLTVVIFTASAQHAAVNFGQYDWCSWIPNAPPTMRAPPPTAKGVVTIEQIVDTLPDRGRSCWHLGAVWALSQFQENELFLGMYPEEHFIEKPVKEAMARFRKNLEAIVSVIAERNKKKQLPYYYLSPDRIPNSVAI

IFN-γ [6] = experiment: Serum pro-inflammatory cytokines in MLD-STZ diabetic mice; format: in vivo, mouse; conditions: 10 days i.p.; BE 150 mg/kg, AKBA 15.0 mg/kg, KBA 7.5 mg/kg
Method: (§2) Male mice were injected i.p. 40 mg/kg STZ for 5 days (STZ group, group A). A second group was, in addition to STZ, treated i.p. with 150 mg/kg BE for 10 days (group STZ+BE, group B). A further group (group C) remained untreated. After 10 days blood samples were taken.
(§3) In further tests, 15.0 mg/kg AKBA or 7.5 mg/kg KBA respectively were administered instead of 150 mg/kg BE.
(§4) Ten days after daily i.p. injections of 150 mg/kg of boswellia extract, of 15.0 mg/kg AKBA or 7.5 mg/kg KBA in MLD-STZ animals (40 mg/kg i.p. for 5 days) the presence of cytokines was determined using the commercially available Multianalyte Array TM Kits (mouse-inflammatory cytokines, SA Bioscience Corporation, USA) according to the instructions on usage provided by the manufacturer. The cytokines IL-1A, IL-1B, IL-2, IFN-γ, IL-6 and TNF-α were ascertained.

IL-1A = experiment: as above; format: in vivo, mouse; conditions: 10 days i.p.; BE 150 mg/kg, AKBA 15.0 mg/kg, KBA 7.5 mg/kg
Method: as §2, §3, §4

IL-6 = experiment: as above; format: in vivo, mouse; conditions: 10 days i.p.; BE 150 mg/kg, AKBA 15.0 mg/kg, KBA 7.5 mg/kg
Method: as §2, §3, §4

IL-1B = experiment: as above; format: in vivo, mouse; conditions: 10 days i.p.; BE 150 mg/kg, AKBA 15.0 mg/kg, KBA 7.5 mg/kg
Method: as §2, §3, §4

IL-2 [7] = experiment: as above; format: in vivo, mouse; conditions: 10 days i.p.; BE 150 mg/kg, AKBA 15.0 mg/kg, KBA 7.5 mg/kg
Method: as §2, §3, §4

TNF-α [8] = experiment: as above; format: in vivo, mouse; conditions: 10 days i.p.; BE 150 mg/kg, AKBA 15.0 mg/kg, KBA 7.5 mg/kg
Method: as §2, §3, §4

[9] = molecular target: Cyclooxygenase 1 (prostaglandin) (Homo sapiens, UniProt P23219); conditions: in vitro, technical literature; cited from earlier work
Sequence of Cyclooxygenase 1 (prostaglandin) (P23219 24-599): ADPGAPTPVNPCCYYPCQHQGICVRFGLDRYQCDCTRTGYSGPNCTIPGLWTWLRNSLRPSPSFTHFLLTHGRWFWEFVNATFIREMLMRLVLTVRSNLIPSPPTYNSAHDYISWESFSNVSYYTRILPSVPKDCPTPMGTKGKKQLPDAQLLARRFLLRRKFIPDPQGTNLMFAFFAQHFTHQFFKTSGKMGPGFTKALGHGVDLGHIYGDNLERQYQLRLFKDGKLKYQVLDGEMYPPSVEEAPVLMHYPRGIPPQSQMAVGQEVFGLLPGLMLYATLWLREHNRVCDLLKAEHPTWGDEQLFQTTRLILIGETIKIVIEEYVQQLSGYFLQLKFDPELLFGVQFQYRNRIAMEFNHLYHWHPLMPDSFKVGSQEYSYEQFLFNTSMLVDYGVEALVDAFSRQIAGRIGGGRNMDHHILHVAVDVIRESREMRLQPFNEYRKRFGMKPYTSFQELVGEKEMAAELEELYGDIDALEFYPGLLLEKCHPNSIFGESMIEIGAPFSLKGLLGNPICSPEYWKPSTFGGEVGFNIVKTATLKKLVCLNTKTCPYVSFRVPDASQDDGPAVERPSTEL

SMILES | Effect on TNF-α (TNF-α [1]) | Blood glucose level after administration was discontinued after 10 days ([2]; AKBA 15 mg/kg i.p. 10 days) | STZ-induced increase of the blood glucose level [2] | Effect on IFN-γ (IFN-γ [3]) | Effect on Elastase (Elastase) | Effect on NFK B (NFK B) | Effect on C3-Convertase (C3-Convertase) | Signs of apoptosis (activated caspase 3) (islets of Langerhans) | Signs of inflammation of the islets of Langerhans (H&E staining, T-lymphocytes by CD3) (islets of Langerhans) | Effect on IL-1β (IL-1β) | Effect on IL-2 (IL-2 [4]) | Effect on 5-Lipoxygenase (leukotriene) [5] | STZ-induced increase in serum IFN-γ (IFN-γ [6]) | STZ-induced increase in serum IL-1A (IL-1A) | STZ-induced increase in serum IL-6 (IL-6) | STZ-induced increase in serum IL-1B (IL-1B) | STZ-induced increase in serum IL-2 (IL-2 [7]) | STZ-induced increase in serum TNF-α (TNF-α [8]) | Effect on Cyclooxygenase 1 (prostaglandin) [9]
CC(=O)O[C@@H]1CC[C@@]2(C)[C@@H](CC[C@]3(C)[C@@H]2C(=O)C=C2[C@@H]4[C@@H](C)[C@H](C)CC[C@]4(C)CC[C@]23C)[C@@]1(C)C(=O)O [AKBA, acetyl-11-keto-β-boswellic acid] | Lowered | no significant further increase | significant reduction | Lowered | Lowered | Lowered | Lowered | only minor signs of apoptosis | no signs of inflammation | Lowered | Lowered | Lowered | reduced or prevented | reduced or prevented | reduced or prevented | reduced or prevented | reduced or prevented | reduced or prevented | Lowered
C[C@H]1[C@H](C)CC[C@]2(C)CC[C@]3(C)C(=CC(=O)[C@@H]4[C@@]5(C)CC[C@@H](O)[C@](C)(C(=O)O)[C@@H]5CC[C@]43C)[C@H]12 [KBA, 11-keto-β-boswellic acid] | – | – | reduced | – | – | – | – | – | neither signs of inflammation | – | – | – | reduced or prevented | reduced or prevented | reduced or prevented | reduced or prevented | reduced or prevented | reduced or prevented | –
